Experimental data from patent US9790228B2, “Heterocyclic kinase inhibitors” (Intellikine LLC, priority 2008, dated 2017).
Like-named read-outs stand apart in the source and are kept apart here.

What was measured:
p110δ/p85α = p110δ/p85α (Homo sapiens (Human), UniProt O00329); assay: PI3K δ inhibition assay (TLC lipid kinase or HTRF); format: biochemical
Protocol: (§1) Class I PI3-Ks can be either purchased (p110α/p85α, p110β/p85α, p110δ/p85α from Upstate, and p110γ from Sigma) or expressed as previously described (Knight et al., 2004). IC50 values are measured using either a standard TLC assay for lipid kinase activity (described below) or a high-throughput membrane capture assay. Kinase reactions are performed by preparing a reaction mixture containing kinase, inhibitor (2% DMSO final concentration), buffer (25 mM HEPES, pH 7.4, 10 mM MgCl2), and freshly sonicated phosphatidylinositol (100 μg/ml). Reactions are initiated by the addition of ATP containing 10 μCi of γ-32P-ATP to a final concentration 10 or 100 μM and allowed to proceed for 5 minutes at room temperature. For TLC analysis, reactions are then terminated by the addition of […] 1N HCl followed by 160 μl CHCl3:MeOH (1:1). The biphasic mixture is vortexed, briefly centrifuged, and the organic phase is transferred to a new tube using a gel loading pipette tip precoated with CHCl3. This extract is spotted on TLC plates and developed for 3-4 hours in a 65:35 solution of n-propanol:1M acetic acid. The TLC plates are then dried, exposed to a phosphorimager screen (Storm, Amersham), and quantitated. For each compound, kinase activity is measured at 10-12 inhibitor concentrations representing two-fold dilutions from the highest concentration tested (typically, 200 μM).
(§2) Other commercial kits or systems for assaying PI3-K activities are available. The commercially available kits or systems can be used to screen for inhibitors and/or agonists of PI3-Ks including but not limited to PI 3-Kinase α, β, δ, and γ. Anr exemplary system is PI3-Kinase (human) HTRF™ Assay from Upstate. […] Briefly, the assay is a time resolved FRET assay that indirectly measures PIP3 product formed by the activity of a PI3-K. The kinase reaction is performed in a microtitre plate (e.g., a 384 well microtitre plate). The total reaction volume is approximately 20 ul per well. In the first step, each well receives 2 ul of test compound in 20% dimethylsulphoxide resulting in a 2% DMSO final concentration. Next, approximately 14.5 ul of a kinase/PIP2 mixture (diluted in 1× reaction buffer) is added per well for a final concentration of 0.25-0.3 ug/ml kinase and 10 uM PIP2. The plate is sealed and incubated for 15 minutes at room temperature. To start the reaction, 3.5 ul of ATP (diluted in 1× reaction buffer) is added per well for a final concentration of 10 uM ATP. The plate is sealed and incubated for 1 hour at room temperature. The reaction is stopped by adding 5 ul of Stop Solution per well and then 5 ul of Detection Mix is added per well. The plate is sealed, incubated for 1 hour at room temperature, and then read on an appropriate plate reader. Data is analyzed and IC50s are generated using GraphPad Prism 5.

p110γ = p110γ (Homo sapiens (Human), UniProt P48736); assay: PI3K γ inhibition assay (TLC lipid kinase or HTRF); format: biochemical
p110γ, sequence (P48736 whole entry): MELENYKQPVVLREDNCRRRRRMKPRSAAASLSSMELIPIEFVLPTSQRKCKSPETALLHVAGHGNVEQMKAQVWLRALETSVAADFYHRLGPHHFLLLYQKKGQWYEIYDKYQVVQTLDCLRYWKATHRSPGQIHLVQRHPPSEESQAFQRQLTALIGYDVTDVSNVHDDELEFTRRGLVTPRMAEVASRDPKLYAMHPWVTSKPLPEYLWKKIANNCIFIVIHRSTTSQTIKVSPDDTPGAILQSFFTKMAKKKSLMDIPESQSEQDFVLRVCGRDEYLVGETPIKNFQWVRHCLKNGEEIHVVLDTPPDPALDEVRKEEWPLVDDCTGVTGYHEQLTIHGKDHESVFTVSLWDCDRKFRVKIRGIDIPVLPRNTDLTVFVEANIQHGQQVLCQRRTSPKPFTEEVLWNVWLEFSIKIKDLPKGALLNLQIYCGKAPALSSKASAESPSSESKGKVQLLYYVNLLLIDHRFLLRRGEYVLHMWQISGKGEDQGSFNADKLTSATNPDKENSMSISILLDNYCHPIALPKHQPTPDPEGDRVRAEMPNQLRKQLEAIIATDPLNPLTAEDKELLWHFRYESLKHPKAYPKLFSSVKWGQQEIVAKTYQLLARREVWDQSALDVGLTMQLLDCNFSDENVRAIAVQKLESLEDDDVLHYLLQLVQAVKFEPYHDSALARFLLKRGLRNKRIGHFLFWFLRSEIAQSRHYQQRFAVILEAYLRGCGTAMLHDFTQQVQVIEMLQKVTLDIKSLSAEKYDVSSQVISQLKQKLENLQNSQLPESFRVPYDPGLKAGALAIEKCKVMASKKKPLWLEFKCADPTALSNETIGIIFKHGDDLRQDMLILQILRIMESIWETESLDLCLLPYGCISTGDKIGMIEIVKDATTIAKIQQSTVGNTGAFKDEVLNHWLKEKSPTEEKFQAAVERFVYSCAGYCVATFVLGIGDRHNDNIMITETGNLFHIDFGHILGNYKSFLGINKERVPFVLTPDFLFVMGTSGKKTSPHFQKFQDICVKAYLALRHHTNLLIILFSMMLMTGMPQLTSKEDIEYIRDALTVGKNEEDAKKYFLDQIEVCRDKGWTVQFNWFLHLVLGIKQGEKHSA
Protocol: as §1, §2

p110α/p85α = p110α/p85α (Homo sapiens (Human), UniProt P42336); assay: PI3K α inhibition assay (TLC lipid kinase or HTRF); format: biochemical
p110α/p85α, sequence (P42336 whole entry): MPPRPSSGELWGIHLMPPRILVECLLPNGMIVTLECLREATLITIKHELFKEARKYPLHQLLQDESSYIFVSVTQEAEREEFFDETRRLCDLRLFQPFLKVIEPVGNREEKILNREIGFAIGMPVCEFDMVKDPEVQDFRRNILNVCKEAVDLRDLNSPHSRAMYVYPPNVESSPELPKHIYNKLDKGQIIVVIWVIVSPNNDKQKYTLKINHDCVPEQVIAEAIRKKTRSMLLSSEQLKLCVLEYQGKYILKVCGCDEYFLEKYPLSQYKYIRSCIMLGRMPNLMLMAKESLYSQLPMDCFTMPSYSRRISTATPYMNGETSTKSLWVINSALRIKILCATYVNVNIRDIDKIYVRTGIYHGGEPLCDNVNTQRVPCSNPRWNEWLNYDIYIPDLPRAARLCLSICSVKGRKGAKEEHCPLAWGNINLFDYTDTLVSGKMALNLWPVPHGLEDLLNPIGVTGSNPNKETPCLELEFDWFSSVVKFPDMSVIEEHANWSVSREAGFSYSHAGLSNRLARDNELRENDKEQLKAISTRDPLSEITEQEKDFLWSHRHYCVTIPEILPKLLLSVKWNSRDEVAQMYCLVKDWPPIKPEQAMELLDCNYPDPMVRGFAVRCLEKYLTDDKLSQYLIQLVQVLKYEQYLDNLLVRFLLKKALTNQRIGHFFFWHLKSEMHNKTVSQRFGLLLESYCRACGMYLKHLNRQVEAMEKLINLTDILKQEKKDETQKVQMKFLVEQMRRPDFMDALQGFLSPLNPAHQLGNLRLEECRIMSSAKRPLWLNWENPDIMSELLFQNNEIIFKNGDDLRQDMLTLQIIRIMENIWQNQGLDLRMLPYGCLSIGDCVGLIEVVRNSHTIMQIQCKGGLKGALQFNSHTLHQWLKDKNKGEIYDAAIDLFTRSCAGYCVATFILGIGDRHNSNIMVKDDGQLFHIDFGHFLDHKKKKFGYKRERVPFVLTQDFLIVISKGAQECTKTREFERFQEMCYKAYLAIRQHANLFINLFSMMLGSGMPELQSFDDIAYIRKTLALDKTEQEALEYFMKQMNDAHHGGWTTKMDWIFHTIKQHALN
p110α/p85α, sequence (P27986 whole entry partner): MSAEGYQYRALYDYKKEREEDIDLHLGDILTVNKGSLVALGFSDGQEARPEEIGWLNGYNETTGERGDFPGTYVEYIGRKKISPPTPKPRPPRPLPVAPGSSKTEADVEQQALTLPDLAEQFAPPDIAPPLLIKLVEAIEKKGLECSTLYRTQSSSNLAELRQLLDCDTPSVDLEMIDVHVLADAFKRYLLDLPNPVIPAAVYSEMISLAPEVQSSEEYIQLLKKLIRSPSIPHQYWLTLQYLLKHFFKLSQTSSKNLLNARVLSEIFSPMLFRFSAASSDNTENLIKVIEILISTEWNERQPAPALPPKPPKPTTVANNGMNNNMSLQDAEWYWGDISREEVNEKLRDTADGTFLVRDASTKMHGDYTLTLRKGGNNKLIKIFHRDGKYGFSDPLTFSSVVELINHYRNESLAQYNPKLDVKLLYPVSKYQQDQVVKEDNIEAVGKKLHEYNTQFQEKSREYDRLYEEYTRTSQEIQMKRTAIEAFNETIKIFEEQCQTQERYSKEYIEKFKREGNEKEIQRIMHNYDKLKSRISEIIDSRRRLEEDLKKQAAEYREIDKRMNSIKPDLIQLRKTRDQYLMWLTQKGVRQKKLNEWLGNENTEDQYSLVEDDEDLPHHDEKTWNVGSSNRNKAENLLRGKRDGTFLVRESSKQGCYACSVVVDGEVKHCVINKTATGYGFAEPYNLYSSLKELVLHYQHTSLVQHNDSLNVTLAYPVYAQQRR
Protocol: as §1, §2

Balb/c splenic B cells = assay: B cell activation and proliferation assay (Alamar Blue); format: cell-based, mouse
Protocol: The ability of one or more subject compounds to inhibit B cell activation and proliferation is determined according to standard procedures known in the art. For example, an in vitro cellular proliferation assay is established that measures the metabolic activity of live cells. The assay is performed in a 96 well microtiter plate using Alamar Blue reduction. Balb/c splenic B cells are purified over a Ficoll-Paque™ PLUS gradient followed by magnetic cell separation using a MACS B cell Isolation Kit (Miletenyi). Cells are plated in 90 ul at 50,000 cells/well in B Cell Media (RPMI+10% FBS+Penn/Strep+50 uM bME+5 mM HEPES). A compound disclosed herein is diluted in B Cell Media and added in a 10 ul volume. Plates are incubated for 30 min at 37 C and 5% CO2 (0.2% DMSO final concentration). A 50 ul B cell stimulation cocktail is then added containing either 10 ug/ml LPS or 5 ug/ml F(ab′)2 Donkey anti-mouse IgM plus 2 ng/ml recombinant mouse IL4 in B Cell Media. Plates are incubated for 72 hours at 37° C. and 5% CO2. A volume of 15 uL of Alamar Blue reagent is added to each well and plates are incubated for 5 hours at 37 C and 5% CO2. Alamar Blue fluoresce is read at 560Ex/590Em, and IC50 or EC50 values are calculated using GraphPad Prism 5.

p110β/p85α = p110β/p85α (Homo sapiens, UniProt P42338); assay: PI3K β inhibition assay (TLC lipid kinase or HTRF); format: biochemical; settings: read-out: PI3K β IC50
p110β/p85α, sequence (P42338 whole entry, looked up): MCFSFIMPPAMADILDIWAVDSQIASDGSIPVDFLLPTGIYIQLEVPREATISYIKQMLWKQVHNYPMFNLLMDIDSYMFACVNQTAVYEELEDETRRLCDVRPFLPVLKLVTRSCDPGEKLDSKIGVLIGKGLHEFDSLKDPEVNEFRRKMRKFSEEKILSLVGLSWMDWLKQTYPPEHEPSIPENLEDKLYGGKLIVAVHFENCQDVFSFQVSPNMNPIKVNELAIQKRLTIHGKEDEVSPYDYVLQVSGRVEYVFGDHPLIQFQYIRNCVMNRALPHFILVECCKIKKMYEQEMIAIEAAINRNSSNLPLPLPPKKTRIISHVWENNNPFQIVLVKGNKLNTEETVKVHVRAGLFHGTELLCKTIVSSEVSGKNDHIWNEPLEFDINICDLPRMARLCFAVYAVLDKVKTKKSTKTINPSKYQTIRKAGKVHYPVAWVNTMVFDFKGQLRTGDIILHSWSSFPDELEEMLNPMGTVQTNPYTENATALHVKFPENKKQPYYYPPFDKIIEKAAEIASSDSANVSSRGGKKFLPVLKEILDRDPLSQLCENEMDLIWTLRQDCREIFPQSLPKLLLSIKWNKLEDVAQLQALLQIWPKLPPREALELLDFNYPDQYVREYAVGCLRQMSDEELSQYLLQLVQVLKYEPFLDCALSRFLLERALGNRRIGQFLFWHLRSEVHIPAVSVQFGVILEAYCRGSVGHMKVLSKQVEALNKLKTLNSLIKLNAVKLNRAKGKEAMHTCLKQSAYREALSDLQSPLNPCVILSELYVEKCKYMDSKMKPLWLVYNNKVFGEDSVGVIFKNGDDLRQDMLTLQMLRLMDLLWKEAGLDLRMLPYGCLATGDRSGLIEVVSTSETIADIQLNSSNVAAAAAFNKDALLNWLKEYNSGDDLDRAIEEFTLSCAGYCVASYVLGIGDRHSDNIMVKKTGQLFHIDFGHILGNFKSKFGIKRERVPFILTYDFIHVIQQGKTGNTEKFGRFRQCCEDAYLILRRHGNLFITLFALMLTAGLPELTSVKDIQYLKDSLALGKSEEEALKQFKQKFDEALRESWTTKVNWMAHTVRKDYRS
Protocol: as §1, §2

p110δ/p85α, sequence (O00329 whole entry): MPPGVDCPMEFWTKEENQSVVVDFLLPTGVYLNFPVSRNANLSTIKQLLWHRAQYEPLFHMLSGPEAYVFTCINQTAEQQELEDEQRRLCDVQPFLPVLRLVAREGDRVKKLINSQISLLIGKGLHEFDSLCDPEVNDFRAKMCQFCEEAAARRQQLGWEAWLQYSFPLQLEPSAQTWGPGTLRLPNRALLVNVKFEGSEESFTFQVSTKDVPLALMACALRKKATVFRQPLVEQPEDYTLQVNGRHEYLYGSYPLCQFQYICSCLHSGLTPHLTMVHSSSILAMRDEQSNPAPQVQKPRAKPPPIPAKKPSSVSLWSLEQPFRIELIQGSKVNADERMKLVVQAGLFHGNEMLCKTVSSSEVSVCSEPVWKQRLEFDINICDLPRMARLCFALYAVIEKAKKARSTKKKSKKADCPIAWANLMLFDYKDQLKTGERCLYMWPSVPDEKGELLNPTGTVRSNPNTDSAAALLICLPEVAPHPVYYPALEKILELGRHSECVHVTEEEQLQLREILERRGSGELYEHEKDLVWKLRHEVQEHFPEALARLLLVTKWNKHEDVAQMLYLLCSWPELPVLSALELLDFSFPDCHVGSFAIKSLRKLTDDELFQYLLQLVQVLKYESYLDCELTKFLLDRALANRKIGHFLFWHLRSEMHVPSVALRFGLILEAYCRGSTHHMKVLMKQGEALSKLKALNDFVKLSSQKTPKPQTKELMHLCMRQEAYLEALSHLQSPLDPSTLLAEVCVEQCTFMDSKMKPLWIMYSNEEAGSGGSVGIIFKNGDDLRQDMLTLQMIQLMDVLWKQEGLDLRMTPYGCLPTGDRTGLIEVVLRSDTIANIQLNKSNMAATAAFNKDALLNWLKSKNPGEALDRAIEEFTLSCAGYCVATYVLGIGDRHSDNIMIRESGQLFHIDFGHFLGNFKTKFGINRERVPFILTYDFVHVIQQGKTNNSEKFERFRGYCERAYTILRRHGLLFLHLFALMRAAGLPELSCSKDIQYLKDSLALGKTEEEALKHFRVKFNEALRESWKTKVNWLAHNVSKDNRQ
p110δ/p85α, sequence (P27986 whole entry partner): as the sequence (P27986 whole entry partner) above

Row | Compound | IC50 (p110δ/p85α) [nM] | IC50 (p110γ) [nM] | IC50 (p110α/p85α) [nM] | IC50 (p110β/p85α) [nM] | EC50 (Balb/c splenic B cells; Mus musculus, B-cell) [nM] | EC50 (Balb/c splenic B cells) [nM]
1 | Nc1ncnc2c1c(-c1cc(O)cc(F)c1)nn2Cc1cc2c(nc1-c1ccccc1F)CCC2 [Compound 101] | 100 to 1000 | > 1000 | > 1000 | > 1000 | 100 to 1000 | –
2 | Nc1ccc2cc(-c3nn(Cc4cc5ccccc5nc4N4CCOCC4)c4ncnc(N)c34)ccc2n1 [Compound 140] | < 100 | < 100 | < 100 | 100 to 1000 | < 100 | –
3 | CN1CCN(c2nc3ccccc3cc2Cn2nc(-c3cnc4[nH]ccc4c3)c3c(N)ncnc32)CC1 [Compound 74] | < 100 | > 1000 | > 1000 | 100 to 1000 | < 100 | –
4 | Nc1ncnc2ccc(-c3nn(Cc4cc5ccccc5nc4N4CCOCC4)c4ncnc(N)c34)cc12 [Compound 142] | < 100 | < 100 | 100 to 1000 | > 1000 | < 100 | –
5 | CC(c1cc2ccccc2nc1N1CCN(C)CC1)n1nc(-c2cc(O)cc(F)c2)c2c(N)ncnc21 (stereo not drawn) [Compound 73] | < 100 | > 1000 | > 1000 | < 100 | < 100 | –
6 | Nc1nc2ccc(-c3nn(Cc4cc5ccccc5nc4-c4ccccc4F)c4ncnc(N)c34)cc2s1 [Compound 85] | < 100 | < 100 | 100 to 1000 | > 1000 | < 100 | –
7 | Nc1ncnc2c1c(-c1ccc3cc[nH]c3c1)nn2Cc1cc2ccccc2nc1N1CCCC1 [Compound 147] | < 100 | < 100 | 100 to 1000 | – | 100 to 1000 | –
8 | Cc1cccc2cc(Cn3nc(-c4cc(O)cc(F)c4)c4c(N)ncnc43)c(N3CCCC3)nc12 [Compound 9] | < 100 | – | > 1000 | > 1000 | < 100 | –
9 | Nc1ncnc2c1c(-c1cc(O)cc(F)c1)nn2Cc1cc2ccccc2nc1N1CCN(CCO)CC1 [Compound 34] | < 100 | 100 to 1000 | – | – | < 100 | –
10 | CC(=O)Nc1nc2ccc(-c3nn(Cc4cc5ccccc5nc4N4CCOCC4)c4ncnc(N)c34)cc2s1 [Compound 128] | < 100 | < 100 | < 100 | – | < 100 | –
11 | C[C@@H](O)C#Cc1nn(Cc2cc3ccccc3nc2N2CCCC2)c2ncnc(N)c12 [Compound 48] | 100 to 1000 | > 1000 | – | – | 100 to 1000 | –
12 | Cc1cccc2cc(Cn3nc(-c4cccc(O)c4)c4c(N)ncnc43)c(N3CCCC3)nc12 [Compound 10] | < 100 | – | > 1000 | > 1000 | 100 to 1000 | –
13 | Nc1ncnc2c1c(-c1cccc(O)c1)nn2Cc1cc2ccccc2nc1N1CCCC1 [Compound 47] | < 100 | < 100 | – | – | < 100 | –
14 | CC(C)Nc1nc2ccccc2cc1Cn1nc(-c2cc(O)cc(F)c2)c2c(N)ncnc21 [Compound 25] | 100 to 1000 | > 1000 | – | – | > 1000 | –
15 | CC(c1cc2ccccc2nc1N1CCCC1)n1nc(C#C[C@@H](C)O)c2c(N)ncnc21 (stereo partly drawn) [Compound 31] | < 100 | > 1000 | – | – | 100 to 1000 | –
16 | CC(c1cc2ccccc2nc1N1CCCC1)n1nc(-c2cccc(O)c2)c2c(N)ncnc21 (stereo not drawn) [Compound 32] | < 100 | 100 to 1000 | – | – | < 100 | –
17 | C[C@@H](O)C#Cc1nn(Cc2cc3ccccc3nc2-c2ccccc2C(F)(F)F)c2ncnc(N)c12 [Compound 49] | 100 to 1000 | > 1000 | – | – | 100 to 1000 | –
18 | Nc1ncnc2c1c(-c1cccc(O)c1)nn2Cc1cc2ccccc2nc1-c1ccccc1 [Compound 148] | < 100 | < 100 | – | > 1000 | < 100 | –
19 | Nc1ncnc2c1c(-c1cccc(O)c1)nn2Cc1cc2ccccc2nc1-c1ccccc1C(F)(F)F [Compound 46] | < 100 | 100 to 1000 | – | – | 100 to 1000 | –
20 | CC(c1cc2ccccc2nc1-c1ccccc1)n1cnc2c(N)ncnc21 (stereo not drawn) [Compound 60] | > 1000 | > 1000 | – | – | > 1000 | –

Continued, in another order:

Row | IC50 (p110δ/p85α) [nM] | IC50 (p110γ) [nM] | IC50 (p110α/p85α) [nM] | IC50 (p110β/p85α) [nM] | Compound | EC50 (Balb/c splenic B cells; Mus musculus, B-cell) [nM] | EC50 (Balb/c splenic B cells) [nM]
21 | < 100 | > 1000 | > 1000 | – | Nc1nc2cc(-c3nn(Cc4cc5ccccc5nc4-c4ccccc4C(F)(F)F)c4ncnc(N)c34)ccc2[nH]1 [Compound 155] | 100 to 1000 | –
22 | < 100 | < 100 | > 1000 | > 1000 | Nc1ncnc2c1c(/C=C1/SC(=O)NC1=O)nn2Cc1cc2ccccc2nc1-c1ccccc1F [Compound 192] | 100 to 1000 | –
23 | < 100 | > 1000 | > 1000 | – | CN1CCN(c2ncccc2Cn2nc(-c3cc(O)cc(F)c3)c3c(N)ncnc32)CC1 [Compound 200] | 100 to 1000 | –
24 | < 100 | < 100 | > 1000 | – | Cc1ccccc1-c1nc2ccccc2cc1Cn1nc(-c2ccc3nc(N)[nH]c3c2)c2c(N)ncnc21 [Compound 182] | 100 to 1000 | –
25 | < 100 | < 100 | – | > 1000 | CC(C)N(C)c1nc2ccccc2cc1Cn1nc(-c2cccc(O)c2)c2c(N)ncnc21 [Compound 150] | < 100 | –
26 | < 100 | 100 to 1000 | > 1000 | > 1000 | Nc1ncnc2c1c(-c1cn[nH]c1)nn2Cc1cc2ccccc2nc1-c1ccccc1 [Compound 180] | 100 to 1000 | –
27 | < 100 | – | < 100 | 100 to 1000 | CC1CCCN1c1nc2ccccc2cc1Cn1nc(-c2ccc3nc(N)sc3c2)c2c(N)ncnc21 (stereo not drawn) [Compound 187] | < 100 | –
28 | < 100 | < 100 | 100 to 1000 | – | Nc1nc2ccc(-c3nn(Cc4cc5ccccc5nc4N4CCCC4)c4ncnc(N)c34)cc2s1 [Compound 196] | – | 100 to 1000
29 | < 100 | – | 100 to 1000 | > 1000 | CC(=O)Nc1nc2ccc(-c3nn(Cc4cc5ccccc5nc4N4CCCC4C)c4ncnc(N)c34)cc2s1 (stereo not drawn) [Compound 186] | < 100 | –
30 | < 100 | < 100 | – | 100 to 1000 | CC(=O)Nc1nc2ccc(-c3nn(Cc4cc5ccccc5nc4N(C)C(C)C)c4ncnc(N)c34)cc2s1 [Compound 151] | < 100 | –
31 | < 100 | 100 to 1000 | < 100 | – | CC(C)N(C)c1nc2ccccc2cc1Cn1nc(-c2ccc3nc(N)sc3c2)c2c(N)ncnc21 [Compound 154] | < 100 | –
32 | < 100 | – | 100 to 1000 | > 1000 | Cc1cn(-c2nc3ccccc3cc2Cn2nc(-c3ccc4nc(N)sc4c3)c3c(N)ncnc32)cn1 [Compound 176] | < 100 | –
33 | < 100 | – | 100 to 1000 | > 1000 | Cc1nccn1-c1cc2ccccc2cc1Cn1nc(-c2ccc3nc(N)sc3c2)c2c(N)ncnc21 [Compound 175] | < 100 | –
34 | < 100 | – | > 1000 | < 100 | Nc1ncnc2c1c(-c1cc(O)cc(F)c1)nn2Cc1cc2ccccc2nc1CN1CCCC1 [Compound 174] | < 100 | –
